The values that follow come from ChEMBL document CHEMBL5442219.

Common to all, as to details: Compound concentration 10 µM
The target in assay [1] is T1, Alpha-2B adrenergic receptor (Homo sapiens) (UniProt P18089).
T1 sequence (whole entry): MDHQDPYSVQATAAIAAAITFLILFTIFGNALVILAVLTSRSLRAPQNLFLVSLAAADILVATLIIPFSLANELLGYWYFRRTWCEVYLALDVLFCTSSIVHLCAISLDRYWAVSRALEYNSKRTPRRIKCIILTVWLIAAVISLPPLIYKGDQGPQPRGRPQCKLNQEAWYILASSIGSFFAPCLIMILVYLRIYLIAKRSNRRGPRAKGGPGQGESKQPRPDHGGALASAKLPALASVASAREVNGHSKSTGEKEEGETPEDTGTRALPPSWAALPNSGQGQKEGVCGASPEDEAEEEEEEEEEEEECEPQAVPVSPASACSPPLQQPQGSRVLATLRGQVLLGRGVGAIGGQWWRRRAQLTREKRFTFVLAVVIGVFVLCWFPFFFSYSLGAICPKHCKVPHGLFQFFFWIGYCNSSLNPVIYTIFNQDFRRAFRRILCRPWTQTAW
Description: PDSP Primary Binding target: ADRA2B - Compounds are tested at 10 uM concentration, plate are incubated at room temperature in the dark for 90 minutes. Reaction are stopped by vacuum filtration onto 0.3% polyethyleneimine soaked filter mats using Filtermate harvester. Scintilation cocktail is then melted onto microwave-dried filters on a hot plate and the radio activity is counted in Microbia counter.

The target of assay [2] is Beta-1 adrenergic receptor (Homo sapiens) (UniProt P08588).
Description: PDSP Primary Binding target: ADRB1 - Compounds are tested at 10 uM concentration, plate are incubated at room temperature in the dark for 90 minutes. Reaction are stopped by vacuum filtration onto 0.3% polyethyleneimine soaked filter mats using Filtermate harvester. Scintilation cocktail is then melted onto microwave-dried filters on a hot plate and the radio activity is counted in Microbia counter.
The target in assay [3] is Beta-2 adrenergic receptor (Homo sapiens) (UniProt P07550).
Description: PDSP Primary Binding target: ADRB2 - Compounds are tested at 10 uM concentration, plate are incubated at room temperature in the dark for 90 minutes. Reaction are stopped by vacuum filtration onto 0.3% polyethyleneimine soaked filter mats using Filtermate harvester. Scintilation cocktail is then melted onto microwave-dried filters on a hot plate and the radio activity is counted in Microbia counter.
Assay [4] addresses T2, Muscarinic acetylcholine receptor M5 (Homo sapiens) (UniProt P08912).
T2 sequence (whole entry): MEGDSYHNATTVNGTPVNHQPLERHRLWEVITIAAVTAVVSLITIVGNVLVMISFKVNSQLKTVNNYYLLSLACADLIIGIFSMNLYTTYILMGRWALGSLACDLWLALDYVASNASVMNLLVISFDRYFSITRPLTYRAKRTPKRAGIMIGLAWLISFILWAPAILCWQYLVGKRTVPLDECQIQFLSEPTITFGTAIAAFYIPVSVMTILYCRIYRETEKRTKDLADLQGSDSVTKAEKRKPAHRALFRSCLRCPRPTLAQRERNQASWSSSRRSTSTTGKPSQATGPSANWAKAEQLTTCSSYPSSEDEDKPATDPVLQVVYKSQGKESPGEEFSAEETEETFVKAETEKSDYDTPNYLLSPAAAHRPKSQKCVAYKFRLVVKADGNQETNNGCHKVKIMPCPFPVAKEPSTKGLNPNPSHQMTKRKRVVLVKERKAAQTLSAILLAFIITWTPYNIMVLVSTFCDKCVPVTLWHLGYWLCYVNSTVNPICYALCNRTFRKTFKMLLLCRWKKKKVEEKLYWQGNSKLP
Description: PDSP Primary Binding target: CHRM5 - Compounds are tested at 10 uM concentration, plate are incubated at room temperature in the dark for 90 minutes. Reaction are stopped by vacuum filtration onto 0.3% polyethyleneimine soaked filter mats using Filtermate harvester. Scintilation cocktail is then melted onto microwave-dried filters on a hot plate and the radio activity is counted in Microbia counter.

For assay [5], the target named is D(2) dopamine receptor (Homo sapiens) (UniProt P14416).
D(2) dopamine receptor (Homo sapiens), sequence (P14416 whole entry): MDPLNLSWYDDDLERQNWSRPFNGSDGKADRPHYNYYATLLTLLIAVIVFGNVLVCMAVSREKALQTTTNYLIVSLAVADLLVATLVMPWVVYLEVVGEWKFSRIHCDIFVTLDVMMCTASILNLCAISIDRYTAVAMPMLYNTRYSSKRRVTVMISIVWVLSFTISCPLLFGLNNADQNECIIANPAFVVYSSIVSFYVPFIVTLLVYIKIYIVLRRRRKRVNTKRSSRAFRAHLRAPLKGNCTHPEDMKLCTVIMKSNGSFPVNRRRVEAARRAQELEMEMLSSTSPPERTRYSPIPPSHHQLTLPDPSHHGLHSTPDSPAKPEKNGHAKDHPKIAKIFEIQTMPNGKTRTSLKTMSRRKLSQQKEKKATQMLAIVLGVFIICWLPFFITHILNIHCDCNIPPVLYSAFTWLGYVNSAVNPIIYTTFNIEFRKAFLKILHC
Description: PDSP Primary Binding target: DRD2 - Compounds are tested at 10 uM concentration, plate are incubated at room temperature in the dark for 90 minutes. Reaction are stopped by vacuum filtration onto 0.3% polyethyleneimine soaked filter mats using Filtermate harvester. Scintilation cocktail is then melted onto microwave-dried filters on a hot plate and the radio activity is counted in Microbia counter.
In assay [6] the target is 5-hydroxytryptamine receptor 1B (Homo sapiens) (UniProt P28222).
5-hydroxytryptamine receptor 1B (Homo sapiens), sequence (P28222 whole entry): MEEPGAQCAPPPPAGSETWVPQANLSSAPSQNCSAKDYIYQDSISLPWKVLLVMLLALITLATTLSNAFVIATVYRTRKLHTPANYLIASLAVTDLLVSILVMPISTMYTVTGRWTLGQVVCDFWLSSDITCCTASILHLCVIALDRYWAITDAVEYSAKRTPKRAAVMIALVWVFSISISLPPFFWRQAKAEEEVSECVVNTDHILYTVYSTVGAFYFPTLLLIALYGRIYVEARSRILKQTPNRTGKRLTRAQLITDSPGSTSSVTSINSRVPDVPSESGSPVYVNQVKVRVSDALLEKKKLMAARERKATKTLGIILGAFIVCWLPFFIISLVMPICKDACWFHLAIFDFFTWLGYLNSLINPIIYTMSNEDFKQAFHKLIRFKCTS
Description: PDSP Primary Binding target: HTR1B - Compounds are tested at 10 uM concentration, plate are incubated at room temperature in the dark for 90 minutes. Reaction are stopped by vacuum filtration onto 0.3% polyethyleneimine soaked filter mats using Filtermate harvester. Scintilation cocktail is then melted onto microwave-dried filters on a hot plate and the radio activity is counted in Microbia counter.
Assay [7] deals with 5-hydroxytryptamine receptor 2A (Homo sapiens) (UniProt P28223).
5-hydroxytryptamine receptor 2A (Homo sapiens), sequence (P28223 whole entry): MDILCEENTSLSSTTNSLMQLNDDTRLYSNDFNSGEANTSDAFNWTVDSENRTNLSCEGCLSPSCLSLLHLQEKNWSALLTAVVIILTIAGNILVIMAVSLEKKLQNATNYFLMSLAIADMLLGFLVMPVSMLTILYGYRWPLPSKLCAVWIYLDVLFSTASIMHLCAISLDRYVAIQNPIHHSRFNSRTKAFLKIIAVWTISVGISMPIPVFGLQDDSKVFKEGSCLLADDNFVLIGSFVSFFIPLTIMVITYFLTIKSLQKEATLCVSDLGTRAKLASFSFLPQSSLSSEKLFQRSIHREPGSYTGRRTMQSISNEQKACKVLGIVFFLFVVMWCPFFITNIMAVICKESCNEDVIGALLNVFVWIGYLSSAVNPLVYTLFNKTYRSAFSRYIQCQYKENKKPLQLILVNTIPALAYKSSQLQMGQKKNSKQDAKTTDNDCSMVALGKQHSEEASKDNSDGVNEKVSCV
Description: PDSP Primary Binding target: HTR2A - Compounds are tested at 10 uM concentration, plate are incubated at room temperature in the dark for 90 minutes. Reaction are stopped by vacuum filtration onto 0.3% polyethyleneimine soaked filter mats using Filtermate harvester. Scintilation cocktail is then melted onto microwave-dried filters on a hot plate and the radio activity is counted in Microbia counter.
Assay [8] concerns the target 5-hydroxytryptamine receptor 2B (Homo sapiens) (UniProt P41595).
Description: PDSP Primary Binding target: HTR2B - Compounds are tested at 10 uM concentration, plate are incubated at room temperature in the dark for 90 minutes. Reaction are stopped by vacuum filtration onto 0.3% polyethyleneimine soaked filter mats using Filtermate harvester. Scintilation cocktail is then melted onto microwave-dried filters on a hot plate and the radio activity is counted in Microbia counter.
Assay [9] concerns the target Kappa-type opioid receptor (Homo sapiens) (UniProt P41145).
Description: PDSP Primary Binding target: OPRK1 - Compounds are tested at 10 uM concentration, plate are incubated at room temperature in the dark for 90 minutes. Reaction are stopped by vacuum filtration onto 0.3% polyethyleneimine soaked filter mats using Filtermate harvester. Scintilation cocktail is then melted onto microwave-dried filters on a hot plate and the radio activity is counted in Microbia counter.
Assay [10] concerns the target Mu-type opioid receptor (Homo sapiens) (UniProt P35372).
Description: PDSP Primary Binding target: OPRM1 - Compounds are tested at 10 uM concentration, plate are incubated at room temperature in the dark for 90 minutes. Reaction are stopped by vacuum filtration onto 0.3% polyethyleneimine soaked filter mats using Filtermate harvester. Scintilation cocktail is then melted onto microwave-dried filters on a hot plate and the radio activity is counted in Microbia counter.
Assay [11] concerns the target Sigma non-opioid intracellular receptor 1 (Homo sapiens) (UniProt Q99720).
Description: PDSP Primary Binding target: SIGMAR1 - Compounds are tested at 10 uM concentration, plate are incubated at room temperature in the dark for 90 minutes. Reaction are stopped by vacuum filtration onto 0.3% polyethyleneimine soaked filter mats using Filtermate harvester. Scintilation cocktail is then melted onto microwave-dried filters on a hot plate and the radio activity is counted in Microbia counter.
The target in assay [12] is Sodium-dependent dopamine transporter (Homo sapiens) (UniProt Q01959).
Sodium-dependent dopamine transporter (Homo sapiens), sequence (Q01959 whole entry): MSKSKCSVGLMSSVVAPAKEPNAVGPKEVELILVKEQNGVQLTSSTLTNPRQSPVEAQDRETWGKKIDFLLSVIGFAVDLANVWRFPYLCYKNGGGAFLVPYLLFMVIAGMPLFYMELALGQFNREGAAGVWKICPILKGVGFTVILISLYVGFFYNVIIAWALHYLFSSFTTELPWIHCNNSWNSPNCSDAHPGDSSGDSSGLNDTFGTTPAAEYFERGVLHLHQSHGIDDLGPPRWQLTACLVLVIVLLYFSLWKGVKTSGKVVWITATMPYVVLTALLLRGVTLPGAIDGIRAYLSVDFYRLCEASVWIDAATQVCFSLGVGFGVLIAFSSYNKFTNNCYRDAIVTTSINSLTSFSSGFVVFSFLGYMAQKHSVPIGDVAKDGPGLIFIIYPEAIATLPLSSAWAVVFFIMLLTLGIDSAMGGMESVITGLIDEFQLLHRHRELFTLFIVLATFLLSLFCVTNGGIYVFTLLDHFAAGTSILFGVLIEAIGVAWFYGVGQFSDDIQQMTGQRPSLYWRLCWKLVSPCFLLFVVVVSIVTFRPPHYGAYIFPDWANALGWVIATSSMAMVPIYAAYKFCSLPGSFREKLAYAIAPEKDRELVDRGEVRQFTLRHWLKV
Description: PDSP Primary Binding target: SLC6A3 - Compounds are tested at 10 uM concentration, plate are incubated at room temperature in the dark for 90 minutes. Reaction are stopped by vacuum filtration onto 0.3% polyethyleneimine soaked filter mats using Filtermate harvester. Scintilation cocktail is then melted onto microwave-dried filters on a hot plate and the radio activity is counted in Microbia counter.
Assay [13] concerns the target Sigma intracellular receptor 2 (Homo sapiens) (UniProt Q5BJF2).
Description: PDSP Primary Binding target: TMEM97 - Compounds are tested at 10 uM concentration, plate are incubated at room temperature in the dark for 90 minutes. Reaction are stopped by vacuum filtration onto 0.3% polyethyleneimine soaked filter mats using Filtermate harvester. Scintilation cocktail is then melted onto microwave-dried filters on a hot plate and the radio activity is counted in Microbia counter.
In assay [14] the target is Translocator protein (Homo sapiens) (UniProt P30536).
Translocator protein (Homo sapiens), sequence (P30536 whole entry): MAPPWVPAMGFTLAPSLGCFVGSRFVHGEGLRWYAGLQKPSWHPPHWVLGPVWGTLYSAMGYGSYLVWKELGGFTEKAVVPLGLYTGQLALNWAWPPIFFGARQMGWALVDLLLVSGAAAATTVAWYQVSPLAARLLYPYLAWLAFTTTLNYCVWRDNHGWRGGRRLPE
Description: PDSP Primary Binding target: TSPO - Compounds are tested at 10 uM concentration, plate are incubated at room temperature in the dark for 90 minutes. Reaction are stopped by vacuum filtration onto 0.3% polyethyleneimine soaked filter mats using Filtermate harvester. Scintilation cocktail is then melted onto microwave-dried filters on a hot plate and the radio activity is counted in Microbia counter.
Assay [15] concerns the target Beta-3 adrenergic receptor (Homo sapiens) (UniProt P13945).
Description: PDSP Primary Binding target: ADRB3 - Compounds are tested at 10 uM concentration, plate are incubated at room temperature in the dark for 90 minutes. Reaction are stopped by vacuum filtration onto 0.3% polyethyleneimine soaked filter mats using Filtermate harvester. Scintilation cocktail is then melted onto microwave-dried filters on a hot plate and the radio activity is counted in Microbia counter.
In assay [16] the target is Histamine H2 receptor (Homo sapiens) (UniProt P25021).
Histamine H2 receptor (Homo sapiens), sequence (P25021 whole entry): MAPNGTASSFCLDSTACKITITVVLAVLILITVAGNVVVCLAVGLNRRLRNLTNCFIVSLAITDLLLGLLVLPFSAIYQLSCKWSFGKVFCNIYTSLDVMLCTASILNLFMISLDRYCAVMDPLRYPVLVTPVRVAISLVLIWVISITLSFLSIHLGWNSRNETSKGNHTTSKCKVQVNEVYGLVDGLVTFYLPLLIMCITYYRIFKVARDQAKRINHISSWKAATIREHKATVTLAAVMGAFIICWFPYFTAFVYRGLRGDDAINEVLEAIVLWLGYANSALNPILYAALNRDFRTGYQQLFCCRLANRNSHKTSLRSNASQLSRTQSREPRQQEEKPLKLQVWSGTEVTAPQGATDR
Description: PDSP Primary Binding target: HRH2 - Compounds are tested at 10 uM concentration, plate are incubated at room temperature in the dark for 90 minutes. Reaction are stopped by vacuum filtration onto 0.3% polyethyleneimine soaked filter mats using Filtermate harvester. Scintilation cocktail is then melted onto microwave-dried filters on a hot plate and the radio activity is counted in Microbia counter.
The target of assay [17] is T3, Muscarinic acetylcholine receptor M1 (Homo sapiens) (UniProt P11229).
T3 sequence (whole entry): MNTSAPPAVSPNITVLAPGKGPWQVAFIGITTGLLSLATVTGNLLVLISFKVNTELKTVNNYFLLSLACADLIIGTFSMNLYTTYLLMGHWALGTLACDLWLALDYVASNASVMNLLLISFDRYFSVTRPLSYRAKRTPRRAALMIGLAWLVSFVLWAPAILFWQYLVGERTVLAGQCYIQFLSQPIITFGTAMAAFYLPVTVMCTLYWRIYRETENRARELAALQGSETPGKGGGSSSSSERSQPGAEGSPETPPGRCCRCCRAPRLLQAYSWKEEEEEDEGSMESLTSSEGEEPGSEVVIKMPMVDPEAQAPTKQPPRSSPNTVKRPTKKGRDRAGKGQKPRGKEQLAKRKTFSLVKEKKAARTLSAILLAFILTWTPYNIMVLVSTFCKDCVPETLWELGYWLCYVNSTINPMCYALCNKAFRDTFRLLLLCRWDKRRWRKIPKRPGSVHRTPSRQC
Description: PDSP Primary Binding target: CHRM1 - Compounds are tested at 10 uM concentration, plate are incubated at room temperature in the dark for 90 minutes. Reaction are stopped by vacuum filtration onto 0.3% polyethyleneimine soaked filter mats using Filtermate harvester. Scintilation cocktail is then melted onto microwave-dried filters on a hot plate and the radio activity is counted in Microbia counter.

Assay [18] has as its target D(1A) dopamine receptor (Homo sapiens) (UniProt P21728).
Description: PDSP Primary Binding target: DRD1 - Compounds are tested at 10 uM concentration, plate are incubated at room temperature in the dark for 90 minutes. Reaction are stopped by vacuum filtration onto 0.3% polyethyleneimine soaked filter mats using Filtermate harvester. Scintilation cocktail is then melted onto microwave-dried filters on a hot plate and the radio activity is counted in Microbia counter.
Assay [19] addresses D(1B) dopamine receptor (Homo sapiens) (UniProt P21918).
Description: PDSP Primary Binding target: DRD5 - Compounds are tested at 10 uM concentration, plate are incubated at room temperature in the dark for 90 minutes. Reaction are stopped by vacuum filtration onto 0.3% polyethyleneimine soaked filter mats using Filtermate harvester. Scintilation cocktail is then melted onto microwave-dried filters on a hot plate and the radio activity is counted in Microbia counter.
The target of assay [20] is 5-hydroxytryptamine receptor 1D (Homo sapiens) (UniProt P28221).
Description: PDSP Primary Binding target: HTR1D - Compounds are tested at 10 uM concentration, plate are incubated at room temperature in the dark for 90 minutes. Reaction are stopped by vacuum filtration onto 0.3% polyethyleneimine soaked filter mats using Filtermate harvester. Scintilation cocktail is then melted onto microwave-dried filters on a hot plate and the radio activity is counted in Microbia counter.
For assay [21], the target named is T4, 5-hydroxytryptamine receptor 2C (Homo sapiens) (UniProt P28335).
T4 sequence (whole entry): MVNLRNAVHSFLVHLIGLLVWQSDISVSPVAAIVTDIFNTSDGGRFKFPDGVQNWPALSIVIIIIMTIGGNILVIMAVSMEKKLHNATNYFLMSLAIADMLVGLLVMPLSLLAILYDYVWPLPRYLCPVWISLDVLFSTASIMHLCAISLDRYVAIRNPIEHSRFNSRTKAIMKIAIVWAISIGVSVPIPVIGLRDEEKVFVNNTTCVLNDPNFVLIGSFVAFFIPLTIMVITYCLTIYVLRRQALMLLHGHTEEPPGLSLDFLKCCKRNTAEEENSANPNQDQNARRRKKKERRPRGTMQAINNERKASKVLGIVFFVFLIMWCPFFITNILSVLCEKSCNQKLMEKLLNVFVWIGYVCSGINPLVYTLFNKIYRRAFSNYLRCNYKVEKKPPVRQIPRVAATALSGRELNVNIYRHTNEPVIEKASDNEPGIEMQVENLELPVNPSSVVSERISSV
Description: PDSP Primary Binding target: HTR2C - Compounds are tested at 10 uM concentration, plate are incubated at room temperature in the dark for 90 minutes. Reaction are stopped by vacuum filtration onto 0.3% polyethyleneimine soaked filter mats using Filtermate harvester. Scintilation cocktail is then melted onto microwave-dried filters on a hot plate and the radio activity is counted in Microbia counter.

Structures are written as SMILES.

D(1B) dopamine receptor (Homo sapiens), sequence (P21918 whole entry): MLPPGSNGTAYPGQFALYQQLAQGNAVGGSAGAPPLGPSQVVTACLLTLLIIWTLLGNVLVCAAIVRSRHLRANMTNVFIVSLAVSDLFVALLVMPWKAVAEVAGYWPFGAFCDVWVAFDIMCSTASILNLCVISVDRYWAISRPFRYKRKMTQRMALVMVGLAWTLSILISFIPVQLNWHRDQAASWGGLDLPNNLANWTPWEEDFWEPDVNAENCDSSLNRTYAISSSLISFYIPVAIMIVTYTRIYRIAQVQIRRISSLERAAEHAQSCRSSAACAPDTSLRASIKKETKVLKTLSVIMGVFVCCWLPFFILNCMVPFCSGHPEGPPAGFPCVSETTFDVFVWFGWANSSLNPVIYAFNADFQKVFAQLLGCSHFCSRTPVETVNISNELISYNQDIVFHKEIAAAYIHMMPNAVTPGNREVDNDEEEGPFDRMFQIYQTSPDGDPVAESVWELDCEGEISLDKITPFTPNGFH
Beta-3 adrenergic receptor (Homo sapiens), sequence (P13945 whole entry, looked up): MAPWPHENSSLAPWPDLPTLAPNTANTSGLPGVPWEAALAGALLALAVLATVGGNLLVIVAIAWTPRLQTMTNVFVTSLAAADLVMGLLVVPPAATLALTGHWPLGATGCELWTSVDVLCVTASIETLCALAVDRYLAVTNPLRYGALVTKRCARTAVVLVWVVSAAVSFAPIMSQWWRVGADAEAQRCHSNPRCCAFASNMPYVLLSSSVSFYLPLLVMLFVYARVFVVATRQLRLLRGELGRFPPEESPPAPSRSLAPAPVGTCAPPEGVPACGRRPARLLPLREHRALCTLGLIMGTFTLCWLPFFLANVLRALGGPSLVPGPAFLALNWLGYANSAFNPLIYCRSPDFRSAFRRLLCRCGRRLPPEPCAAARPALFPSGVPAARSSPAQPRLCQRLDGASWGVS
Sigma non-opioid intracellular receptor 1 (Homo sapiens), sequence (Q99720 whole entry): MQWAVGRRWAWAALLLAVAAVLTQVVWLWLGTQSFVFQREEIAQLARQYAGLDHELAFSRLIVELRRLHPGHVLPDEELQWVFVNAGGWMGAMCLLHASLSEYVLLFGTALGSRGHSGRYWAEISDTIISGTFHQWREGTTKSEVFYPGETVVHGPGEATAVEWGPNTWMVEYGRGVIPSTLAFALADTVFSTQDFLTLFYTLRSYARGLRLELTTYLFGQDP
5-hydroxytryptamine receptor 2B (Homo sapiens), sequence (P41595 whole entry): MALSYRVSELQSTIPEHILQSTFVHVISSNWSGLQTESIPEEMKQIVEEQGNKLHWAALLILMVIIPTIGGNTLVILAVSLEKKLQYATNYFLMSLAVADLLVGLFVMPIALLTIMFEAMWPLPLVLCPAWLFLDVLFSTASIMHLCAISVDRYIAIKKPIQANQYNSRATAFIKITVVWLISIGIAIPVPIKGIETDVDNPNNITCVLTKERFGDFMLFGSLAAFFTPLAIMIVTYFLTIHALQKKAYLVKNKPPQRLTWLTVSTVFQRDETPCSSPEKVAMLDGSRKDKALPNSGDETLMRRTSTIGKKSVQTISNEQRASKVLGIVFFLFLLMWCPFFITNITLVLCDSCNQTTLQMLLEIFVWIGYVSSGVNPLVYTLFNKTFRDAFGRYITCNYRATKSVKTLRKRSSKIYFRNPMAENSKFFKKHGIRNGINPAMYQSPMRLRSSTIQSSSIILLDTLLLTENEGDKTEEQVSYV
Sigma intracellular receptor 2 (Homo sapiens), sequence (Q5BJF2 whole entry): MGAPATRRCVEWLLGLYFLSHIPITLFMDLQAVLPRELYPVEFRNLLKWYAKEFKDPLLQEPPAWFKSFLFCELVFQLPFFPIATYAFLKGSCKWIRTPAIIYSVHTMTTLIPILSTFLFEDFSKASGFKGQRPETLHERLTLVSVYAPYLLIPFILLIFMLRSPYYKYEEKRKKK
D(1A) dopamine receptor (Homo sapiens), sequence (P21728 whole entry): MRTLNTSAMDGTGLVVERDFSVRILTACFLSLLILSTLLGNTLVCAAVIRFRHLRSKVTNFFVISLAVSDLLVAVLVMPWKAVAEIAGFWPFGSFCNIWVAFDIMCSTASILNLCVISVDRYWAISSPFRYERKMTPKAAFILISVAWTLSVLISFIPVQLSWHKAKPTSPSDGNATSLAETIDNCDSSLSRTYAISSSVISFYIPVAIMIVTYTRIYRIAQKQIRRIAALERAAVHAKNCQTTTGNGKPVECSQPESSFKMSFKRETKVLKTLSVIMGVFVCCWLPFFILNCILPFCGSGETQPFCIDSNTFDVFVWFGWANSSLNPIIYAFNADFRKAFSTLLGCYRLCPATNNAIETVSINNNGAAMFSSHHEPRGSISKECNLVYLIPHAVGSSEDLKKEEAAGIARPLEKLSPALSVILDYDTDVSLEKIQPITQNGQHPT

In the case of `CN(C(=O)Cc1ccc(Cl)c(Cl)c1)C(CN1CCCC1)c1cccc(OCC(=O)O)c1` (stereo not drawn), the inhibition (in general, the drop in the measured response relative to a control, in per cent) in assay [1] was 5.65%; in assay [2] it was 20.5%; in [3] it was -5.04%; in assay [4] it was 59.6%; in assay [5] it was -3.77%; in [6], 11.1%. Moreover, the inhibition is 42.8% in assay [7]; 14.7% in [8]; 100% in assay [9]; 87.5% in assay [10]; 24.1% in assay [11]; 26.4% in assay [12]. Further, the inhibition in assay [13] was 21.9%; in assay [14], 21.5%; in [15], -9.83%; in assay [16], 28.1%.

On to `CCCCCNC(=N)N/N=C/c1c[nH]c2ccc(OC)cc12`, for which the inhibition in assay [1] was 69%; in assay [3], 54.7%; in [17] it was 19.6%; in assay [4], 8.93%; in assay [18] it was 47.1%; in assay [5], 67.3%. In addition, the inhibition was 54.4% in assay [19]; 96.3% in [6]; 76.3% in assay [20]; 93.7% in assay [7]; 100% in assay [8]; 92.8% in assay [21]. Also, the inhibition in [9] is 35.1%; in [10], 63.9%; in assay [11], 96.6%; in assay [12], 69.1%; in assay [13], 94.2%; in assay [14] it was 47.4%. Also, the inhibition in assay [15] was 89.7%; in [16] it was 23.9%.

For the compound `COc1cc(-n2cnc3cc(-c4ccc(Cl)cc4)sc3c2=O)ccc1OCCN1CCCC1`, the inhibition in assay [1] was 47.6%; in assay [3], 17.8%; in assay [17] it was 84.1%; in [4], 64.9%; in assay [18], 11.7%; in [5] it was 30.2%. Besides, the inhibition is 27.2% in assay [19]; 42.5% in [6]; 56.6% in assay [20]; 32.9% in [7]; 82.7% in [8]; 79.9% in assay [21]. Moreover, the inhibition is 33.2% in assay [9]; 37.9% in assay [10]; 98.9% in assay [11]; 66.4% in assay [12]; 94.7% in [13]; 11.9% in assay [14]. The inhibition is 43.7% in assay [15] and 18.7% in [16].

Turning to `C[C@@H](NCCCc1cccc(C(F)(F)F)c1)c1cccc2ccccc12`, the inhibition in assay [1] is 39.4%; in assay [3] it was 9.84%; in assay [17], 17.6%; in [4] it was 7.94%; in [18] it was 8.33%; in assay [5], 25.8%. For the same compound, the inhibition was -9.65% in assay [19]; 27.5% in assay [6]; 61.5% in assay [20]; 80.6% in [7]; 96.3% in assay [8]; 72.6% in assay [21]. Moreover, the inhibition is 79.3% in assay [9]; 78.3% in assay [10]; 70.4% in assay [12]; 95.5% in assay [13]; 13.5% in assay [14]; 48% in assay [15]. For the same compound, in assay [16], the inhibition is 62.1%.

Take `COc1ccccc1CN[C@H]1C2CCN(CC2)[C@H]1C(c1ccccc1)c1ccccc1`: the inhibition in assay [1] was 3.23%; in assay [2], 17%; in assay [4], 56.2%; in assay [5], 9.32%; in [6], 8.03%; in assay [7] it was 13.4%. Moreover, the inhibition was 0.68% in assay [8]; -3.39% in assay [21]; 49.1% in [9]; 9.53% in assay [10]; 48.5% in [11]; 40% in assay [12]. The inhibition was 62.5% in [13], 30.2% in assay [14], -1.7% in assay [15] and 8.86% in assay [16].

As for `CCc1cc(C(C)=O)c(O)cc1OCCCCCC(C)(C)c1nn[nH]n1`, the inhibition in assay [1] is 15.2%; in assay [2] it was 18.3%; in assay [4], 47.9%; in assay [18] it was 1.9%; in assay [5], 8.34%; in assay [6], 14.7%. Further, the inhibition in [7] is 12.7%; in assay [8], 64.2%; in [21] it was 0.93%; in assay [9] it was 16.9%; in assay [10], 8.2%; in [11] it was 61.4%. Also, the inhibition was 32.8% in assay [12], -1.68% in assay [14], 0.68% in assay [15] and 6.38% in assay [16].

In the case of `CC(C)C[C@H](NC(=O)N1CCCCCC1)C(=O)N[C@H](Cc1cn(C)c2ccccc12)C(=O)N[C@H](Cc1ccccn1)C(=O)O`, the inhibition in assay [2] is -0.82%; in assay [3] it was -6.68%; in assay [17] it was 0.87%; in [5], 2.53%; in assay [19], -0.58%; in [6] it was -2.58%. In addition, the inhibition in [7] was -0.06%; in assay [8], 16%; in [9] it was -7.75%; in assay [10] it was 16.7%; in [11], 4.12%; in assay [12] it was -1.54%. The inhibition in assay [13] was 9.3%; in assay [14], 25.5%; in assay [15] it was -0.31%; in [16], 18%.
